Measurements published in ChEMBL document CHEMBL5360568, “Synthesis and anti-Alzheimer potential of novel α-amino phosphonate derivatives and probing their molecular interaction mechanism with acetylcholinesterase” (Eur J Med Chem, 2023).
pIC50: −log10 of the molar value.

Columns and labels:
Cholinesterase = Cholinesterase (Equus caballus, UniProt P81908); assay: Inhibition of equine serum BuChE using butyrylthiocholine iodide as substrate preincubated for 5 mins followed by substrate addition by DTNB based Ellman's method
Cholinesterase, sequence (P81908 whole entry): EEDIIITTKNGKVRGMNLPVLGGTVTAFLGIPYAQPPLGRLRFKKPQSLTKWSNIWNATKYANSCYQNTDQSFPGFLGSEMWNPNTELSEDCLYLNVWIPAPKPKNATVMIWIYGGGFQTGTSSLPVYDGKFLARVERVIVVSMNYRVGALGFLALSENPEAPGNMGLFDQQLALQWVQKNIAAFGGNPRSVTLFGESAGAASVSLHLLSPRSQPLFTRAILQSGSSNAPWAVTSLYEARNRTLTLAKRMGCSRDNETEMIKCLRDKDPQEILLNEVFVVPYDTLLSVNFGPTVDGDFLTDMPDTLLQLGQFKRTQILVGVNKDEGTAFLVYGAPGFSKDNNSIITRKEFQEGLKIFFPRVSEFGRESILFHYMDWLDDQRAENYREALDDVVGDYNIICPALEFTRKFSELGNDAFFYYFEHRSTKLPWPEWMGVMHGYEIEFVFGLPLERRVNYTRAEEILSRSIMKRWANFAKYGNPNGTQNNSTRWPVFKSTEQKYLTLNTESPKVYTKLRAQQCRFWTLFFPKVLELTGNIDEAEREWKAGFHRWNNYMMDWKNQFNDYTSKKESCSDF

[1] = Antioxidant activity assessed as ABTS radical scavenging activity incubated for 30 mins by spectrophotometric analysis; type: functional
Acetylcholinesterase [2] = target: Acetylcholinesterase (Electrophorus electricus, UniProt O42275); assay: Inhibition of electric eel AChE using acetylthiocholine iodide as substrate preincubated for 5 mins followed by substrate addition by DTNB based Ellman's method
Acetylcholinesterase (Electrophorus electricus, UniProt O42275), sequence (O42275 whole entry): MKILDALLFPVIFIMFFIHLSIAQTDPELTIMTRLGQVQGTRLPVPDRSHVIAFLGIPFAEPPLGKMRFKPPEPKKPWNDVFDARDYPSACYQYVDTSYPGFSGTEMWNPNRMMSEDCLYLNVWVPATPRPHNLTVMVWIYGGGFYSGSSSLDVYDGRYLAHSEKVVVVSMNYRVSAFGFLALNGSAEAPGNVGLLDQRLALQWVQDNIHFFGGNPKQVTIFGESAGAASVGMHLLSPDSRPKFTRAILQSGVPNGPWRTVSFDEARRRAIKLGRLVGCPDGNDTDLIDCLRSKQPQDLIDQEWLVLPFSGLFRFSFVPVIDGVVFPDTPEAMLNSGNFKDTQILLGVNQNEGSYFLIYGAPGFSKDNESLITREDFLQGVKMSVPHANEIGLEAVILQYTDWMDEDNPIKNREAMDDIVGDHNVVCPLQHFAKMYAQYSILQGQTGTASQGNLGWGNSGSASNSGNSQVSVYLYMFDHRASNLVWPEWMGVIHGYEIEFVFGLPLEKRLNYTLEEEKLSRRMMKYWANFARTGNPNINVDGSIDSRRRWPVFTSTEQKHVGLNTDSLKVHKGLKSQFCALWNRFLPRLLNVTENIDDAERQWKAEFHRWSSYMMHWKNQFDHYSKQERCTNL

[3] = Selectivity ratio, ratio of IC50 for inhibition of equine serum BuChE to IC50 for inhibition of electric eel AChE
Acetylcholinesterase [4] = target: Acetylcholinesterase (Homo sapiens, UniProt P22303); assay: Inhibition of human erythrocyte AChE using acetylthiocholine iodide as substrate preincubated for 5 mins followed by substrate addition by DTNB based Ellman's method
Acetylcholinesterase (Homo sapiens, UniProt P22303), sequence (P22303 whole entry): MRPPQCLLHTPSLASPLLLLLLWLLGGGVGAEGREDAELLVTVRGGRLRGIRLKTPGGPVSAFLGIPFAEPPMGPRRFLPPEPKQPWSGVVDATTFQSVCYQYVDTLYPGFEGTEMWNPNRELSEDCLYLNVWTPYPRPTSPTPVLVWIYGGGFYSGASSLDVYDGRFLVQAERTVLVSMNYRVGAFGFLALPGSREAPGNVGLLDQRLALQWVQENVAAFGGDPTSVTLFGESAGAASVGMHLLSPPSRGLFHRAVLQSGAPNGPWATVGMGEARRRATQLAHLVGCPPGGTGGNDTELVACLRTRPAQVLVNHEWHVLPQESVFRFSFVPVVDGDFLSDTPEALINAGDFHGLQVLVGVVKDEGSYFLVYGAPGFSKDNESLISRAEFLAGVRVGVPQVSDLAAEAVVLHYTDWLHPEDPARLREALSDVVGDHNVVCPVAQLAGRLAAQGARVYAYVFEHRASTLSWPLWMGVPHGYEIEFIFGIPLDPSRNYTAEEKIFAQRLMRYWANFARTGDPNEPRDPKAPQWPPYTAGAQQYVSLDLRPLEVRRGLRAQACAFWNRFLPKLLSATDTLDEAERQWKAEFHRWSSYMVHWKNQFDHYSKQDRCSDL

[5] = target: Amyloid-beta precursor protein (Homo sapiens) (UniProt P05067); assay: Modulation of amyloid beta (1 to 42) (unknown origin) self aggregation assessed as increase in fluorescence intensity at 0.03 to 0.1 uM incubated for 24 hrs by Thioflavin T fluorescence assay; settings: filed as modulator, dose 0.03-0.1 µM
Amyloid-beta precursor protein (Homo sapiens), sequence (P05067 whole entry): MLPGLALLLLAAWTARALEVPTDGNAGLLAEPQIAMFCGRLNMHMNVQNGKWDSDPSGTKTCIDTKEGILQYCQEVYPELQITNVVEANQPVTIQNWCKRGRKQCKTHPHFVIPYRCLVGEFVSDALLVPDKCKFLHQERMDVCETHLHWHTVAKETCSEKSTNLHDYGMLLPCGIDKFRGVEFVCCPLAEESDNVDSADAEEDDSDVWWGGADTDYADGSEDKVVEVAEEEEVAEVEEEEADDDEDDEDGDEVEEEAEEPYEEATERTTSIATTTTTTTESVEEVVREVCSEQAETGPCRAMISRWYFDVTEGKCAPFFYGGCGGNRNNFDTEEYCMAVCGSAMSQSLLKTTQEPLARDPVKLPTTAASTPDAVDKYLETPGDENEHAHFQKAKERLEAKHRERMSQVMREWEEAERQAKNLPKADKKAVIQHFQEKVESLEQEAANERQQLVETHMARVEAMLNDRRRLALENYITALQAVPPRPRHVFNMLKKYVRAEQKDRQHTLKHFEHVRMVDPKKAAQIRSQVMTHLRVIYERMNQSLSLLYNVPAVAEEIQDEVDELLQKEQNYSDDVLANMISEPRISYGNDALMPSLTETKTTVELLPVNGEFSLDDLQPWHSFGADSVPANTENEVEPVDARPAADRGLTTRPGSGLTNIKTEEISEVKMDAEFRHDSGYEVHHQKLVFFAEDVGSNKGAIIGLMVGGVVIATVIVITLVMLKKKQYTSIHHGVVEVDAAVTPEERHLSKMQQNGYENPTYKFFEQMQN

SMILES	pIC50 (Cholinesterase)	pIC50 [1]	pIC50 (Acetylcholinesterase [2])	Ratio IC50 [3]	pIC50 (Acetylcholinesterase [4])	Activity [5]
CCOP(=O)(OCC)C(Nc1ccccc1Br)c1ccc(OCc2nc3ccccc3c(=O)n2-c2ccc(F)cc2)c(OC)c1 (stereo unspecified)	< 4.00	< 4.30	6.33			
CCOP(=O)(OCC)C(Nc1ccc(C)cc1)c1ccc(OCc2nc3ccccc3c(=O)n2-c2ccc(F)cc2)c(OC)c1 (stereo unspecified)	< 4.00	4.41	6.17			
CCOP(=O)(OCC)C(Nc1cc(C)cc(C)c1)c1ccc(OCc2nc3ccccc3c(=O)n2-c2ccc(F)cc2)c(OC)c1 (stereo unspecified)	4.58	4.34	6.33	56.8		
CCOP(=O)(OCC)C(Nc1nncs1)c1ccc(OCc2nc3ccccc3c(=O)n2-c2ccc(F)cc2)c(OC)c1 (stereo unspecified)	< 4.00	< 4.30	6.44		5.47	
CCOP(=O)(OCC)C(Nc1ccc(F)cc1)c1ccc(OCc2nc3ccccc3c(=O)n2-c2ccc(F)cc2)c(OC)c1 (stereo unspecified)	4.45	< 4.30	6.09	43.9		
CCOP(=O)(OCC)C(Nc1cc(C)ccc1C)c1ccc(OCc2nc3ccccc3c(=O)n2-c2ccc(F)cc2)c(OC)c1 (stereo unspecified)	4.73	< 4.30	6.38	45.1	5.22	
CCOP(=O)(OCC)C(Nc1ccccc1C)c1ccc(OCc2nc3ccccc3c(=O)n2-c2ccc(F)cc2)c(OC)c1 (stereo unspecified)	4.47	< 4.30	6.41	86	5.27	
CCOP(=O)(OCC)C(Nc1ccccc1C(C)=O)c1ccc(OCc2nc3ccccc3c(=O)n2-c2ccc(F)cc2)c(OC)c1 (stereo unspecified)	4.92	4.30	6.42	31.9	5.25	
COc1ccc2c3c1O[C@H]1C[C@@H](O)C=C[C@@]31CCN(C)C2						Dose-Dependent Effect
CCOP(=O)(OCC)C(Nc1ccccc1)c1ccc(OCc2nc3ccccc3c(=O)n2-c2ccc(F)cc2)c(OC)c1 (stereo unspecified)	< 4.00	< 4.30	6.04			
CCOP(=O)(OCC)C(Nc1ccccc1C#N)c1ccc(OCc2nc3ccccc3c(=O)n2-c2ccc(F)cc2)c(OC)c1 (stereo unspecified)	4.96	4.40	6.49	34.2	5.53	
CCOP(=O)(OCC)C(Nc1c(C)cccc1C)c1ccc(OCc2nc3ccccc3c(=O)n2-c2ccc(F)cc2)c(OC)c1 (stereo unspecified)	< 4.00	< 4.30	6.45		5.52	
